Data published in patent publication US6573252B1, “Medicine nitrate salts” (priority 1998, dated 2003).
Structures can show the parent of a compound that is named as a salt.

Columns and labels:
[1] = system: myeloperoxydase (MPO); assay: Myeloperoxydase activity in intestinal tissue, acute colitis model (2,4,6-trinitrobenzensulphonic acid); assay type: in vivo; conditions: for Myeloperoxydase activity (unit/mg tissue): rectal route, amount corresponding to 100 mg/kg of 5-ASA, 6 administrations, intestinal tissue (wet)
Method: Myeloperoxydase Activity of the 5-Aminosalicylic Acid (4-nitroxy)butyl Ester Compared with that of the Corresponding Hydrochloride and Nitrate Salts, in an Acute Colitis Model
4 groups of 6 animals each have been formed. The groups were treated, respectively, with the carrier (carboxymethylcellulose aqueous solution 1%), 100 mg/Kg of 5-ASA, a 5-ASA-NO2.HCl amount corresponding to 100 mg/kg of 5-ASA, an amount of 5-ASA-NO2.HNO3 correspsonding to 100 mg/kg of 5-ASA.
The animals were treated by rectal route with the above compounds at zero time. After one hour the animals were treated with 0.5 ml of a 60 mg/ml solution of 2,4,6,trinitro-benzensulphonic acid in ethyl alcohol 50%. After two hours the animals were treated again by rectal route with the same compounds and at 12 hour intervals up to a total of 6 administrations.
The tissular levels of the myeloperoxydase (MPO) enzym have been measured which is an inflammatory process marker in various tissues, among which the bony-articular one (C. Rathakrishnan et Al., “Release of oxygen radicals by articular chondrocytes: A study of luminol-dependent chemiluminescence and hydrogen peroxide secretion” J. Bone Miner. Res. 7/10 1139-1148 1992).
The myeloperoxydase activity was measured by using a modified version of the experimental model described by Bradley et al. J. Invest. Dermatol. 78, 206-209, 1982. Samples of intestinal tissue were drawn from each animal, which were suspended in 0.1% of hexadecyltrimethylammonium bromide (50 mg/ml) at a pH 6 and homogenized for 15 seconds (Polytron® PT-7 generator). The samples were frozen and then defrosted three times subsequently before being centrifuged (9,000 g) for 2 minutes in an Eppendorf® Benchtop centrifuge. The myeloperoxydase activity was measured by adding 7 μl of the surnatant to 200 μl of o-dianisidine (Sigma) reactant and measuring the optical density variation at 450 nm in a two minute time in a Microtitre Multiscan®. The reactant contained 0.0005% of hydrogen peroxide as substratum for the myeloperoxydase enzym. One unity of the myeloperoxydase activity was defined as the one capable to convert an hydrogen proxide micromole to water in one minute at 22° C. The results are reported in Table II and are expressed as unit number of the myeloperoxydase activity/tissue mg (wet).

[2] = Gastric toxicity (gastric lesion incidence) after oral administration in fasted rats; assay type: in vivo; conditions: for Gastric damage (% incidence): rat, in vivo, po, 100 mg/kg
Method: Gastric Toxicity of Piroxicam Nitrate Salt (Ex. 1) Compared with Piroxicam
To 3 groups of 10 rats each, kept on empty stomach since 24 hours, orally are administered:
5 ml/Kg of carboxymethylcellulose aqueous suspension 2%.
an amount of nitrate Piroxicam corresponding to 100 mg/kg of Piroxicam in 5 ml/kg of carboxymethylcellulose aqueous suspension 2%.
an amount of hydrocloride Piroxicam corresponding to 100 mg/kg of Piroxicam in 5 ml/kg of carboxymethylcellulose aqueous suspension 2%.
Six hours later the animals are sacrificed and the gastric lesion incidence is evaluated.

[3] = Gastric damage induced by Aspirin, Alendronate compared with Alendronate nitrate salt; conditions: rats, after Aspirin 125 mg/Kg, Alendronate dose 80 mg/Kg p.o.
Method: Prevention of the Gastric Damage Induced by Aspirin by Administering Alendronate in Comparison with Alendronate Nitrate Salt
Three groups of 5 rats each were treated by oral route with gastric probe as indicated hereinafter:
I group: treated with Alendronate (Alen.) at the dose of 80 mg/Kg.
II group: 1 h before the Alendronate 80 mg/Kg dose, ASpirin (Asp.) was supplied per os at the dose of 125 mg/Kg.
III group: 1 h before the Alendronate nitrate, (Alen.HNO3) corresponding to the Alendronate 80 mg/Kg dose, Aspirin was supplied per os at the dose of 125 mg/Kg.
The evaluation of the gastric damage was carried out sacrificing the animals three hours after the treatment with Alendronate or Alendronate nitrate.

[4] = Acute toxicity, single oral dose in rats; assay type: in vivo; conditions: single dose 100 mg/kg orally in carboxymethylcellulose aqueous suspension 2% w/v, observation for 14 days
Method: To a group of 10 rats weighing […] a single dose equal to 100 mg/kg of Piroxicam nitrate salt (Example 1), has been administered by cannula orally in a carboxymethylcellulose aqueous suspension 2% w/v.
The animals are kept under obsevation for 14 days.

Question: What does the source list for `Nc1ccc(O)c(C(=O)OCCCCO[N+](=O)[O-])c1.O=[N+]([O-])O` [5-ASA-NO2.HNO3, Nitrate Salt of the 5-amino-2-hydroxybenzoic Acid (4-nitroxy)butyl Ester]?
Answer: myeloperoxydase activity (comparison in words) ([1]; acute colitis model, compared with the other groups): lower than that of the other groups; pharmacological activity compared with the unsalified compound ([1]; pharmacological model indicated in the examples): more active than the unsalified compound; Myeloperoxydase activity (unit/mg tissue) [1]: 35 ± 13 unit/mg tissue

Question: With `Nc1ccc(O)c(C(=O)O)c1` [Example 5-ASA, 5-aminosalicylic acid, reference compound] as the compound, how does the “Myeloperoxydase activity (unit/mg tissue)” value [1] read?
Answer: Its value is 72 ± 15 unit/mg tissue.

Question: With `CN1C(C(=O)Nc2ccccn2)=C(O)c2ccccc2S1(=O)=O` [Piroxicam.HCl, Piroxicam hydrochloride, reference compound] as the compound, how does the “Gastric damage (% incidence)” value ([2]; 6 h) read?
Answer: The value was 100%.

Question: With Alendronate Nitrate Salt [Alen.HNO3] as the compound, how does the “reduction of the level of the gastric damage in comparison with Alendronate” value [3] read?
Answer: Its value is 4 to 5 times.

Question: Which toxic symptom presence [4] does the source give for Piroxicam Nitrate Salt [Piroxicam.HNO3] here?
Answer: Its toxic symptom presence is “In no one of the animals of the group the toxic symptom presence was noticed”.

Question: What about the “Gastric damage (% incidence)” value [2] of the same compound?
Answer: The value was 20%.

Question: What about the “gastric tolerability (comparison in words)” value ([2]; rats, 100 mg/kg p.o., compared with Piroxicam hydrochloride) of the same compound?
Answer: The value was “improved gastric tolerability compared with Piroxicam hydrochloride”.

Question: For `Cl.Nc1ccc(O)c(C(=O)OCCCCO[N+](=O)[O-])c1` [5-ASA-NO2.HCl, Hydrochloride Salt of the 5-Aminosalicylic Acid (4-nitroxy)-butyl Ester, reference compound], which “Myeloperoxydase activity (unit/mg tissue)” value [1] is on record?
Answer: Its value is 111 ± 20 unit/mg tissue.
